Tests used:
Gli-Luc/MEF cells = test: Gli-Luc/MEF assay; format: cell-based, mouse; conditions: Mus musculus, MEF; Shh-stimulated luciferase, 48 hours
Procedure, shortened: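 Shh-stimulated luciferase readout (Bright-Glo) after 48 h, 37 °C, 5% CO2, used to derive IC50 of inhibition. Gli-Luc transgenic mouse MEFs received test compounds at final […] in 3-fold dilutions, with recombinant mouse Shh added immediately at final 2 μg/mL.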

Gli1 = test: Down regulation of Smo targeted gene Gli1 in the brain, primary medulloblastoma model; format: in vivo; conditions: Ptch1+/-p53-/- medulloblastoma mice, 30 mg/kg once daily for 4 days oral gavage, 6 hours post last dose
Procedure: Down Regulation of Smo Targeted Gene Gli1 in the Brain by A-116
In this study, 6-week-old Ptch1+/−p53−/− primary medulloblastoma mice (n=3 per group) were treated with 30 mg/kg of A-116 or vehicle (0.5% methylcellulose (MC)) once daily for 4 days by oral gavage. On day 4, at 6 hours post last dose, mice were euthanized and tumor bearing cerebella were removed. Total RNA was extracted from the tumor tissue together with the cerebella using the RNeasy Mini Kit (Qiagen). Subsequently, cDNA was synthesized from the RNA using High Capacity cDNA Reverse Transcription Kit (Applied Biosystems) according to the protocol provided by the vendor. Quantitative real-time PCR analysis of Smo targeted gene Gli1 expression level was performed using RT-PCR ABI Prism 7900 sequence detection system (Applied Biosystems).

P-glycoprotein = P-glycoprotein (Homo sapiens (Human), UniProt P08183); test: P-glycoprotein substrate status; format: in vitro ADME
Sequence of P-glycoprotein (P08183 whole entry): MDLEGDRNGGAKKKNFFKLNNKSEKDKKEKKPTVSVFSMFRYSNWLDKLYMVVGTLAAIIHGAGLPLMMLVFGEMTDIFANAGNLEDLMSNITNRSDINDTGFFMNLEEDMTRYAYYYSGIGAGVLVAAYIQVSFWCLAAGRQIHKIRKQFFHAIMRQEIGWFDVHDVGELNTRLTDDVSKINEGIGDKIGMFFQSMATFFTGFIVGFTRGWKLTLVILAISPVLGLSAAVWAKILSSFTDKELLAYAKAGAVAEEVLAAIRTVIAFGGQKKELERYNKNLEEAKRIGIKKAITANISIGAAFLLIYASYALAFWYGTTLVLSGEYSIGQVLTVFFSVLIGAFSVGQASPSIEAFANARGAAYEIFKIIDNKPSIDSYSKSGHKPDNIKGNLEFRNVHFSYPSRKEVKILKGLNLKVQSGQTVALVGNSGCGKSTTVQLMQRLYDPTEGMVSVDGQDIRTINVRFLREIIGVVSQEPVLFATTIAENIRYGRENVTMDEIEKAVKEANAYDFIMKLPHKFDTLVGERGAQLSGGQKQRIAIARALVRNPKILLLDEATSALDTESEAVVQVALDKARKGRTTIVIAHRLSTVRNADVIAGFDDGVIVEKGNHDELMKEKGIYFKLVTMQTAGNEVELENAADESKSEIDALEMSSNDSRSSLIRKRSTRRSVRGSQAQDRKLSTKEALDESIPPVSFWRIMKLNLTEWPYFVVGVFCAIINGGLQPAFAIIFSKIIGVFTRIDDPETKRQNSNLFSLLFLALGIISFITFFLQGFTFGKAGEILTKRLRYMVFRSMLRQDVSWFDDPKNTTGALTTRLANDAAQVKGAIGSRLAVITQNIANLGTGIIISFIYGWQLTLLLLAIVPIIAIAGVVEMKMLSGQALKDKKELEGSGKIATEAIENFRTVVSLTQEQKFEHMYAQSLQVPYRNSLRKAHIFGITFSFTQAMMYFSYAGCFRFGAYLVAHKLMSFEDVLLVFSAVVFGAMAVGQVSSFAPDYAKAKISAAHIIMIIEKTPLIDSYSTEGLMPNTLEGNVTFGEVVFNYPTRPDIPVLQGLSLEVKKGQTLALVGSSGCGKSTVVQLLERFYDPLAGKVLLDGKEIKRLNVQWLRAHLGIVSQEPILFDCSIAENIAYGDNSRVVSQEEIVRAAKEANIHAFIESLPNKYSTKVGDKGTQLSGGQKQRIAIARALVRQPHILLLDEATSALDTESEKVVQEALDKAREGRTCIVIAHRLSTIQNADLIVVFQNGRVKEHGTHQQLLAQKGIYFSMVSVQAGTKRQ

SMILES: Cc1cnc(-c2cc(N3CCN(C(=O)CCS(C)(=O)=O)CC3)ncc2Cl)c(C)c1 [Example A-116, 5′-chloro-3,5-dimethyl-2′-{4-[3-(methylsulfonyl)propanoyl]piperazin-1-yl}-2,4′-bipyridine]
- IC50 (Gli-Luc/MEF cells): 2.76 nM
- Gli1 level, % of vehicle control (Gli1): 4.5±0.4%
- P-glycoprotein substrate (P-glycoprotein): not a P-glycoprotein substrate

— patent US9056865B2, “Pyridine-2-derivatives as smoothened receptor modulators” (Pfizer Inc., priority 2010, dated 2015)
